# From US9187471B2, “Pyrido [4,3-b] indole and pyrido [3,4-b] indole derivatives and methods of use” (Medivation Technologies, Inc., priority 2010, dated 2015)
# Legend:
# [1] = biological target: T1, human recombinant histamine H1 receptor (Homo sapiens, UniProt P35367); test: Histamine H1 radioligand binding ([3H]Pyrilamine); conditions: read-out: Histamine H1 Binding (1 μM), percent inhibition of specific binding; compound at 1 μM; 1.2 nM [3H]Pyrilamine
# T1 construct: expressed in transfected cells; host or cells: CHO-K1
# T1 sequence (P35367 whole entry): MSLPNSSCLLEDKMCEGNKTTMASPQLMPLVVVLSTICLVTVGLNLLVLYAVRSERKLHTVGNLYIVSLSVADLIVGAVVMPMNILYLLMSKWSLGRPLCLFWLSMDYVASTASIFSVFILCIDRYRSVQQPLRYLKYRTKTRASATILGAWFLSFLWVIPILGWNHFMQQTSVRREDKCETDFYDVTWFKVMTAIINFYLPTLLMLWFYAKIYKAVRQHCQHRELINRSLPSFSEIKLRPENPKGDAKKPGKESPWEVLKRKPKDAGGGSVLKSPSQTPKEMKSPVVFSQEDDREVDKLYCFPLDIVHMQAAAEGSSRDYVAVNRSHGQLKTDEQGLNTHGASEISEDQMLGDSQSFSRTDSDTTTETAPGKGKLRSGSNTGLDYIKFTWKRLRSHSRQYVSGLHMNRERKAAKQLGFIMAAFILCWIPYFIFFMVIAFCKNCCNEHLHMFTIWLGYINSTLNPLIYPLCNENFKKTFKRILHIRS
# Summary of the method: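 Results expressed as percent inhibition of specific [3H]pyrilamine binding, counted on filters after washing. Receptor source: CHO-K1 cells expressing recombinant human H1, in modified Tris-HCl buffer (50 mM, pH 7.4; 2 mM MgCl2, 100 mM NaCl, 250 mM sucrose). 1 μM pyrilamine defined non-specific binding.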
# [2] = biological target: T2, human recombinant dopamine D2L receptor (Homo sapiens, UniProt P14416); test: Dopamine D2L radioligand binding ([3H]Spiperone); conditions: 0.16 nM [3H]Spiperone; for inhibition at 1 µM: read-out: Dopamine D2L (1 μM), percent inhibition of specific binding, compound at 1 μM
# T2 construct: expressed in transfected cells; host or cells: CHO
# T2 sequence (P14416 whole entry): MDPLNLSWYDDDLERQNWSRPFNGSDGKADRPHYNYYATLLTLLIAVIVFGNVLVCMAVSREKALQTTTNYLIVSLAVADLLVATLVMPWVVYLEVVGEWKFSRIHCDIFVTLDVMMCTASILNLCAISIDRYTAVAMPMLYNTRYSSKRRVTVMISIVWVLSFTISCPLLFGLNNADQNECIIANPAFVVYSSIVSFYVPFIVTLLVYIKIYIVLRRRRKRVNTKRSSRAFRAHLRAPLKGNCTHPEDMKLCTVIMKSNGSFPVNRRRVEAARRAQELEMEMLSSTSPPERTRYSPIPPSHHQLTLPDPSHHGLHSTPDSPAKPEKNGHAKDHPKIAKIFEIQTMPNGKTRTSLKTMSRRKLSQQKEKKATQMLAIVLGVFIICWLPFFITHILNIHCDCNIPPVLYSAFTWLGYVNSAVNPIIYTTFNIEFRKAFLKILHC
# Description: Non-specific binding was estimated in the presence of 10 μM Haloperidol. Receptor proteins were filtered and washed, the filters were then counted to determine [^3H]Spiperone specifically bound.
# [3] = biological target: T3, human recombinant serotonin (5-Hydroxytryptamine) 5-HT6 receptor (Homo sapiens, UniProt P50406); test: Serotonin 5-HT6 radioligand binding ([3H]LSD); conditions: compound at 0.1 μM; read-out: Inhibition of ligand binding, Serotonin 5-HT6 (percent inhibition of specific binding)
# T3 construct: expressed in transfected cells; host or cells: HeLa
# T3 sequence (P50406 whole entry): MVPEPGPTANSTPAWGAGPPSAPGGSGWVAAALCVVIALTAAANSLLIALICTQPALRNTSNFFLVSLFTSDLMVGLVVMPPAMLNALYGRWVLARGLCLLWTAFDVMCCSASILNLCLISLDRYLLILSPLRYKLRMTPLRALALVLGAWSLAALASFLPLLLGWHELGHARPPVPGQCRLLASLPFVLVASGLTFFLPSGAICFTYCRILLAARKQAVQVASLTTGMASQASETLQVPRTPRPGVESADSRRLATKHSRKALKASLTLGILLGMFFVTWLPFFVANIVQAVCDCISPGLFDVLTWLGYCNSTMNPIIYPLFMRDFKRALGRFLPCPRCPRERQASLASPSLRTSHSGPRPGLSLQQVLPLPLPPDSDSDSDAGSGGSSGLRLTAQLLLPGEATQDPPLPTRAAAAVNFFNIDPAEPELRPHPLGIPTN
# Source text: Receptor proteins were filtered and washed, the filters were then counted to determine [3H]LSD specifically bound.
# [4] = biological target: T4, human recombinant serotonin (5-Hydroxytryptamine) 5-HT7 receptor (Homo sapiens, UniProt P34969); test: Serotonin 5-HT7 radioligand binding ([3H]LSD); conditions: compound at 0.1 μM; read-out: Inhibition of ligand binding, Serotonin 5-HT7 (percent inhibition of specific binding)
# T4 construct: expressed in transfected cells; host or cells: CHO
# T4 sequence (P34969 whole entry): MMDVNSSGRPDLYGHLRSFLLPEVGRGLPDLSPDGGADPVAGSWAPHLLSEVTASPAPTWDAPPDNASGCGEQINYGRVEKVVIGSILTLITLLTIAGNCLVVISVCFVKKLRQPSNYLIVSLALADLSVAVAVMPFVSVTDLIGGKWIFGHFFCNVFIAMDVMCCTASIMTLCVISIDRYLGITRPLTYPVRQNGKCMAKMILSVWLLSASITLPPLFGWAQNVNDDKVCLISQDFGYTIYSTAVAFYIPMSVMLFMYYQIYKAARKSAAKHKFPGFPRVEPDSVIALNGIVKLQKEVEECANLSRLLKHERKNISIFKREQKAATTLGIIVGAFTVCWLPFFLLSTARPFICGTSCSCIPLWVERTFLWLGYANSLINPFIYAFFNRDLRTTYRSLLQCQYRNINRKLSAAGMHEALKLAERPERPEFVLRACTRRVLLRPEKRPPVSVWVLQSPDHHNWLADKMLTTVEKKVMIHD
# Description: Lysergic acid diethylamide (LSD) for 120 min. at 25° C. […] Receptor proteins were filtered and washed, the filters were then counted to determine [^3H]LSD specifically bound.
SMILES,inhibition at 1 µM [1] [%],inhibition at 1 µM [2] [%],inhibition at 0.1 µM [3] [%],inhibition at 0.1 µM [4] [%],"inhibition at 0.1 µM ([2]; read-out: Dopamine D2L (0.1 μM), percent inhibition of specific binding, compound at 0.1 μM) [%]"
"Cc1ccc2c(c1)c1c(n2-c2ccc(-c3ccncc3)cn2)CCN(C)C1 [Compound No. 132, 5-(3,4′-bipyridin-6-yl)-2,8-dimethyl-2,3,4,5-tetrahydro-1H-pyrido[4,3-b]indole]",3,18,2,23,–
Cc1ccc2c(c1)c1c(n2-c2ccccc2-c2cnc(N(C)C)nc2)CCN(C)C1 [Compound 31],3,12,20,-2,–
"Cc1ccc2c(c1)c1c(n2-c2cccc(-c3cccn3C)c2)CCN(C)C1 [Compound No. 69, 2,8-dimethyl-5-(3-(1-methyl-1H-pyrrol-2-yl)phenyl)-2,3,4,5-tetrahydro-1H-pyrido[4,3-b]indole]",42,12,21,25,–
"Cc1ccc2c(c1)c1c(n2-c2cccc(-c3ccc(S(C)(=O)=O)cc3)c2)CCN(C)C1 [Compound No. 131, 2,8-dimethyl-5-(4′-(methylsulfonyl)biphenyl-3-yl)-2,3,4,5-tetrahydro-1H-pyrido[4,3-b]indole]",20,4,-3,2,–
"Cc1ccc2c(c1)c1c(n2-c2cccc3ccncc23)CCN(C)C1 [Compound 58, 5-(isoquinolin-8-yl)-2,8-dimethyl-2,3,4,5-tetrahydro-1H-pyrido[4,3-b]indole]",31,11,21,69,–
"Cc1ccc2c(c1)c1c(n2-c2ccc(-c3ccc(S(N)(=O)=O)cc3)cn2)CCN(C)C1 [Compound No. 145, 4-(6-(2,8-dimethyl-3,4-dihydro-1H-pyrido[4,3-b]indol-5(2H)-yl)pyridin-3-yl)benzenesulfonamide]",17,8,-11,32,–
Cc1cc(C)c2c(c1)c1c(n2-c2ccc3ncccc3c2)CCN(C)C1 [Compound 48],4,41,20,23,–
Cc1ccc2c(c1)c1c(n2-c2ccc3cnccc3c2)CCN(C)C1 [Compound 38],-4,53,73,33,–
"Cc1ccc2c(c1)c1c(n2-c2cccc(-c3ccc(C)s3)c2)CCN(C)C1 [Compound No. 64, 2,8-dimethyl-5-(3-(5-methylthiophen-2-yl)phenyl)-2,3,4,5-tetrahydro-1H-pyrido[4,3-b]indole]",23,24,-3,31,–
CNC(=O)c1ccc(-c2cscc2-n2c3c(c4cc(C)ccc42)CN(C)CC3)cc1 [Compound No. 155],10,–,-6,94,1
"Cc1ccc2c(c1)c1c(n2-c2ccc(-c3ccc(F)nc3)cn2)CCN(C)C1 [Compound No. 142, 5-(6′-fluoro-3,3′-bipyridin-6-yl)-2,8-dimethyl-2,3,4,5-tetrahydro-1H-pyrido[4,3-b]indole]",7,13,-12,22,–
"Cc1ccc2c(c1)c1c(n2-c2ccccc2-c2ccc(C)nc2)CCN(C)C1 [Compound 59, 2,8-dimethyl-5-(2-(6-methylpyridin-3-yl)phenyl)-2,3,4,5-tetrahydro-1H-pyrido[4,3-b]indole]",27,13,17,48,–
Cc1ccc2c(c1)c1c(n2-c2cscc2-c2sccc2C)CCN(C)C1 [Compound 39],58,54,65,97,–
